Source: patent US20150126530A1, “Novel Substituted Imidazopyrimidines as Gpbar1 Receptor Modulators” (Torrent Pharmaceuticals Limited., priority 2011, published 2015)

Molecular target: T1, human TGR5 (Homo sapiens, UniProt Q8TDU6)
T1 construct: host or cells: CHO cells (ATCC)
T1 sequence (Q8TDU6 1-330): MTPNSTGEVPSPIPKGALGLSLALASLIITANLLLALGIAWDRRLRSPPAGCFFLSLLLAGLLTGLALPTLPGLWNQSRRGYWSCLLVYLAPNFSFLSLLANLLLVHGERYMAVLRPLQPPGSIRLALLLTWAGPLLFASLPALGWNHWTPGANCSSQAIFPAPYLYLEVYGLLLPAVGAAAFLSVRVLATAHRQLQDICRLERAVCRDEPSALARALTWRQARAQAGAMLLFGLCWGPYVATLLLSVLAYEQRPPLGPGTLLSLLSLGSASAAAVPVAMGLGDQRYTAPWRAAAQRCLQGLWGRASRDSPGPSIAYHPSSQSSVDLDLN
Assay: cAMP Responsive Element (CRE)-Reporter Assay
Type: cell-based
Settings: luciferase activity relative to vehicle control, five hours, CHO cells transfected with human TGR5 and CRE-luciferase
Protocol: (A) cAMP Responsive Element (CRE)-Reporter Assay:
CHO cells (ATCC) were transfected with human TGR5 (oriGene) and CRE-luciferase reporter vector. Transfected cells were treated with vehicle control or test compounds (Conc 10 μM) for five hours and then lysed. Cell lysates were monitored for luciferase acivity. Increase in luciferase activity is considered as a result of TGR5 activation. Results were expressed as fold induction as compared to vehicle control.
Results are summarized in Table 2 where, + indicates 1.5-2 fold while ++, +++, ++++ indicate 2-3 fold, 3-4 fold, and >4 fold induction respectively relative to vehicle control when tested at 10 μM concentration.

| fold induction at 10 µM | SMILES |
| --- | --- |
| 3 to 4 | CN(C(=O)c1c(-c2ccc(Cl)cc2)nc2ncccn12)c1ccc2c(c1)CCC2 [Compound no. 4, 2-(4-chlorophenyl)-N-(2,3-dihydro-1H-inden-5-yl)-N-methylimidazo[1,2-a]pyrimidine-3-carboxamide] |
| > 4 | CN(C(=O)c1c(-c2ccc(Cl)cc2)nc2ncccn12)c1ccc(Cl)cc1 [Compound no. 5, N,2-bis(4-chlorophenyl)-N-methylimidazo[1,2-a]pyrimidine-3-carboxamide] |
| 3 to 4 | CN(C(=O)c1c(-c2ccc(F)cc2)nc2ncccn12)c1ccc2c(c1)CCC2 [Compound no. 6, N-(2,3-dihydro-1H-inden-5-yl)-2-(4-fluorophenyl)-N-methylimidazo[1,2-a]pyrimidine-3-carboxamide] |
| 3 to 4 | CN(C(=O)c1c(-c2ccc(-c3ccccc3)cc2)nc2ncccn12)c1ccc(Cl)cc1 [compound 8, 2-(biphenyl-4-yl)-N-(4-chlorophenyl)-N-methylimidazo[1,2-a]pyrimidine-3-carboxamide] |
| 3 to 4 | COc1ccc(-c2nc3ncccn3c2C(=O)N(C)c2ccc(Cl)cc2)cc1OC [compound 10, N-(4-chlorophenyl)-2-(3,4-dimethoxyphenyl)-N-methylimidazo[1,2-a]pyrimidine-3-carboxamide] |
| 3 to 4 | COc1ccc(-c2nc3ncccn3c2C(=O)N(C)c2ccc3c(c2)CCC3)cc1OC [compound 13, N-(2,3-dihydro-1H-inden-5-yl)-2-(3,4-dimethoxyphenyl)-N-methylimidazo[1,2-a]pyrimidine-3-carboxamide] |
| 3 to 4 | CN(C(=O)c1c(-c2ccc(Cl)c(Cl)c2)nc2ncccn12)c1ccc(Cl)cc1 [compound 14, N-(4-chlorophenyl)-2-(3,4-dichlorophenyl)-N-methylimidazo[1,2-a]pyrimidine-3-carboxamide] |
| 2 to 3 | COc1ccc(-c2nc3ncccn3c2C(=O)N(C)c2ccc(Cl)cc2)cc1 [compound 16, N-(4-chlorophenyl)-2-(4-methoxyphenyl)-N-methylimidazo[1,2-a]pyrimidine-3-carboxamide] |
| 2 to 3 | CN(C(=O)c1c(-c2ccc(Cl)cc2)nc2ncccn12)c1ccc(F)cc1 [compound 18, 2-(4-chlorophenyl)-N-(4-fluorophenyl)-N-methylimidazo[1,2-a]pyrimidine-3-carboxamide] |
| 2 to 3 | COc1ccc(N(C)C(=O)c2c(-c3ccc(Cl)cc3)nc3ncccn23)cc1OC [compound 19, 2-(4-chlorophenyl)-N-(3,4-dimethoxyphenyl)-N-methylimidazo[1,2-a]pyrimidine-3-carboxamide] |
| 2 to 3 | CN(C(=O)c1c(-c2cccnc2)nc2ncccn12)c1ccc(Cl)cc1 [compound 20, N-(4-chlorophenyl)-N-methyl-2-(pyridin-3-yl)imidazo[1,2-a]pyrimidine-3-carboxamide] |
| 2 to 3 | CN(C(=O)c1c(-c2ccc(Cl)cc2)nc2ncccn12)c1ccc(S(=O)(=O)N(C)C)cc1 [compound 24, 2-(4-chlorophenyl)-N-[4-(dimethylsulfamoyl)phenyl]-N-methylimidazo[1,2-a]pyrimidine-3-carboxamide] |
| 2 to 3 | COc1ccc(N(C)C(=O)c2c(-c3ccc(Cl)cc3)nc3ncccn23)c(OC)c1 [compound 25, 2-(4-chlorophenyl)-N-(2,4-dimethoxyphenyl)-N-methylimidazo[1,2-a]pyrimidine-3-carboxamide] |
| 1.5 to 2 | CN(C(=O)c1c(-c2ccc(Cl)cc2)nc2ncccn12)c1ccc(O)c(O)c1 [compound 27, 2-(4-chlorophenyl)-N-(3,4-dihydroxyphenyl)-N-methylimidazo[1,2-a]pyrimidine-3-carboxamide] |
| 3 to 4 | CN(C(=O)c1c(-c2ccc3c(c2)OCO3)nc2ncccn12)c1ccc(Cl)cc1 [compound 29, 2-(1,3-benzodioxol-5-yl)-N-(4-chlorophenyl)-N-methylimidazo[1,2-a]pyrimidine-3-carboxamide] |
| 3 to 4 | CN(C(=O)c1c(-c2cccc(C(F)(F)F)c2)nc2ncccn12)c1ccc(Cl)cc1 [compound 31, N-(4-chlorophenyl)-N-methyl-2-[3-(trifluoromethyl)phenyl]imidazo[1,2-a]pyrimidine-3-carboxamide] |
| 1.5 to 2 | COc1ccc(NC(=O)c2c(-c3ccc(F)cc3)nc3ncccn23)c(OC)c1 [compound 34, N-(2,4-dimethoxyphenyl)-2-(4-fluorophenyl)imidazo[1,2-a]pyrimidine-3-carboxamide] |
| 1.5 to 2 | CN(C(=O)c1c(-c2ccc(S(=O)(=O)N(C)C)cc2)nc2ncccn12)c1ccc(Cl)cc1 [compound 37, N-(4-chlorophenyl)-2-[4-(dimethylsulfamoyl)phenyl]-N-methylimidazo[1,2-a]pyrimidine-3-carboxamide] |
| 2 to 3 | COc1ccc(-c2nc3ncccn3c2C(=O)N(C)c2ccc(F)cc2)cc1F [compound 41, 2-(3-fluoro-4-methoxyphenyl)-N-(4-fluorophenyl)-N-methylimidazo[1,2-a]pyrimidine-3-carboxamide] |

Second part, the compound before the results:

| SMILES | fold induction at 10 µM |
| --- | --- |
| CN(C(=O)c1c(-c2ccccc2)nc2ncccn12)c1cccc(Cl)c1 [Compound no. 2, N-(3-chlorophenyl)-N-methyl-2-phenylimidazo[1,2-a]pyrimidine-3-carboxamide] | 3 to 4 |
| CN(C(=O)c1c(-c2ccccc2)nc2ncccn12)c1ccc(CC(=O)O)cc1 [Compound no. 3, (4-{methyl[(2-phenylimidazo[1,2-a]pyrimidin-3-yl)carbonyl]amino}phenyl)acetic acid] | 1.5 to 2 |
| CN(C(=O)c1c(-c2ccccn2)nc2ncccn12)c1ccc(Cl)cc1 [Compound no. 11, N-(4-chlorophenyl)-N-methyl-2-(pyridin-2-yl)imidazo[1,2-a]pyrimidine-3-carboxamide] | 1.5 to 2 |
| CN(C(=O)c1c(Oc2ccc(F)cc2)nc2ncccn12)c1ccc(F)cc1F [Compound no. 46, N-(2,4-difluorophenyl)-2-(4-fluorophenoxy)-N-methylimidazo[1,2-a]pyrimidine-3-carboxamide] | 2 to 3 |
| CN(C(=O)c1c(-c2ccc(-c3ccccc3)cc2)nc2ncccn12)c1ccc2c(c1)CCC2 [compound 9, 2-(biphenyl-4-yl)-N-(2,3-dihydro-1H-inden-5-yl)-N-methylimidazo[1,2-a]pyrimidine-3-carboxamide] | 2 to 3 |
| CN(C(=O)c1c(-c2ccccc2)nc2ncc(-c3ccccc3)cn12)c1ccc(Cl)cc1 [compound 12, N-(4-chlorophenyl)-N-methyl-2,6-diphenylimidazo[1,2-a]pyrimidine-3-carboxamide] | 2 to 3 |
| CN(C(=O)c1c(-c2ccc(O)c(O)c2)nc2ncccn12)c1ccc2c(c1)CCC2 [compound 15, N-(2,3-dihydro-1H-inden-5-yl)-2-(3,4-dihydroxyphenyl)-N-methylimidazo[1,2-a]pyrimidine-3-carboxamide] | 2 to 3 |
| CN(C(=O)c1c(-c2ccccn2)nc2ncccn12)c1ccc2c(c1)CCC2 [compound 17, N-(2,3-dihydro-1H-inden-5-yl)-N-methyl-2-(pyridin-2-yl)imidazo[1,2-a]pyrimidine-3-carboxamide] | 2 to 3 |
| CN(C(=O)c1c(-c2ccc(Cl)cc2Cl)nc2ncccn12)c1ccc(F)cc1 [compound 21, 2-(2,4-dichlorophenyl)-N-(4-fluorophenyl)-N-methylimidazo[1,2-a]pyrimidine-3-carboxamide] | 3 to 4 |
| CN(C(=O)c1c(-c2ccccc2C(F)(F)F)nc2ncccn12)c1ccc(Cl)cc1 [compound 23, N-(4-chlorophenyl)-N-methyl-2-[2-(trifluoromethyl)phenyl]imidazo[1,2-a]pyrimidine-3-carboxamide] | 3 to 4 |
| CN(C(=O)c1c(-c2ccccc2)nc2ncccn12)c1ccc(F)cc1 [compound 26, N-(4-fluorophenyl)-N-methyl-2-phenylimidazo[1,2-a]pyrimidine-3-carboxamide] | 2 to 3 |
| O=C(Nc1ccc(Cl)cc1)c1c(-c2ccc(F)cc2)nc2ncccn12 [compound 32, N-(4-chlorophenyl)-2-(4-fluorophenyl)imidazo[1,2-a]pyrimidine-3-carboxamide] | 1.5 to 2 |
| CN(C(=O)c1c(-c2cccc(C#N)c2)nc2ncccn12)c1ccc(F)cc1 [compound 35, 2-(3-cyanophenyl)-N-(4-fluorophenyl)-N-methylimidazo[1,2-a]pyrimidine-3-carboxamide] | 2 to 3 |
| CN(C(=O)c1c(-c2ccc(S(=O)(=O)N(C)C)cc2)nc2ncccn12)c1ccc(F)cc1 [compound 38, 2-[4-(dimethylsulfamoyl)phenyl]-N-(4-fluorophenyl)-N-methylimidazo[1,2-a]pyrimidine-3-carboxamide] | 1.5 to 2 |
| O=C(Nc1ccc(F)cc1F)c1c(-c2ccc(F)cc2)nc2ncccn12 [compound 39, N-(2,4-difluorophenyl)-2-(4-fluorophenyl)imidazo[1,2-a]pyrimidine-3-carboxamide] | 1.5 to 2 |
| CN(C(=O)c1c(-c2ccc(F)cc2)nc2ncccn12)c1ccc(F)cc1F [compound 40, N-(2,4-difluorophenyl)-2-(4-fluorophenyl)-N-methylimidazo[1,2-a]pyrimidine-3-carboxamide] | 2 to 3 |
